According to US9708336B2, “Metallo-beta-lactamase inhibitors” (priority 2014, dated 2017):
Read-outs that look alike come from different tables or passages of the source.

Columns and labels:
[1] = system: Serratia marcescens expressing IMP-1 (CL5741); experiment: Antibiotic potentiation activity: synergistic concentration (MITC95) with imipenem, OD600 growth; format: cell-based; conditions: for Serratia marcescens expressing IMP-1 (CL5741) MITC95: concentration giving 95% inhibition of bacterial growth
Protocol: (§1) Antibiotic Potentiation Activity: Determination of Synergistic Concentration
(§2) The bacterial strains tested included the clinical strains Escherichia coli expressing NDM-1 (CLB30005, CLB30016), Serratia marcescens expressing IMP-1 (CL5741), and Klebsiella pneumoniae expressing VIM-1 (IHMA599644) Inhibitor activity was measured in the presence and absence of imipenem in a 384-well microplate.
(§3) The clinical strains CLB30016, CL5741 and IHMA599644 were grown on trypticase soy agar containing 5% sheep's blood. The clinical strain CLB30005 was grown on Mueller Hinton broth agar containing 8 ug/ml imipenem. The bacteria on agar plates were incubated at 35° C. with humidity overnight. The following day, individual colonies from each clinical strain were picked and resuspended in 5 ml saline to attain an OD600 of 0.14, 0.11, 0.15 and 0.13, for CLB30005, CLB30016, CL5741 and IHMA599644, respectively. These were further diluted 1:100 into 1.1×CAMHB and used to inoculate the test wells as described below.
(§4) Imipenem in 10 mM 3-(N-morpholino)propanesulfonic acid (MOPS, pH 7) was stored in single use aliquots at −80° C. […] On the day of the assay, 4 μl of antibiotic was added to 45 ul of bacteria followed by 1 μl of test compound and mixed by pipetting and with an orbital shaker. The concentration of antibiotic used in the assay was 4 μg/ml, or optionally 1 μg/ml. Microplates were covered and incubated at 35° C. for 22 hours to 24 hours. At the end of the incubation, absorbance was determined using a spectrophotometer.

[2] = system: Klebsiella pneumoniae expressing VIM-1 (IHMA599644); experiment: as above; format: cell-based; conditions: for Klebsiella pneumoniae expressing VIM-1 (IHMA 599644) MITC95: concentration giving 95% inhibition of bacterial growth
Protocol: as §1, §2, §3, §4

[3] = system: Escherichia coli expressing NDM-1 (CLB30016); experiment: as above; format: cell-based; conditions: for Escherichia coli expressing NDM-1 (CLB 30016) MITC95: concentration giving 95% inhibition of bacterial growth
Protocol: as §1, §2, §3, §4

IMP-1 = IMP-1 (Serratia marcescens, UniProt P52699); experiment: biochemical; format: biochemical; conditions: read-out: IMP-1 IC50
NDM-1 = NDM-1 (Klebsiella pneumoniae, UniProt C7C422); experiment: biochemical; format: biochemical; conditions: read-out: NDM-1 IC50
VIM-1 = VIM-1 (Pseudomonas aeruginosa (strain ATCC 15692 / DSM 22644 / CIP 104116 / JCM 14847 / LMG 12228 / 1C / PRS 101 / PAO1), UniProt A0A0F7KYQ8); experiment: Enzyme activity: determination of IC50, fluorescence assay with CCF2-FA substrate (VIM-1); format: biochemical
[4] = Serratia marcescens expressing IMP-1 (CL5741), 95% growth inhibition
[5] = Klebsiella pneumoniae expressing VIM-1 (IHMA599644), 95% growth inhibition
[6] = Escherichia coli expressing NDM-1 (CLB30016), 95% growth inhibition
[7] = IMP-1 enzyme, CCF2-FA fluorescence assay
[8] = CL5741 (IMP-1), 95% inhibition of bacterial growth
[9] = IHMA599644 (VIM-1), 95% inhibition of bacterial growth
[10] = CLB30016 (NDM-1), 95% inhibition of bacterial growth
[11] = fluorescence assay with CCF2-FA substrate
[12] = NDM-1 enzyme, CCF2-FA fluorescence assay
[13] = Serratia marcescens CL5741 (IMP-1), 95% growth inhibition
[14] = Klebsiella pneumoniae IHMA599644 (VIM-1), 95% growth inhibition
[15] = (CLB30016, NDM-1), 95% growth inhibition
[16] = NDM-1 enzyme, CCF2-FA substrate
[17] = IMP-1 enzyme, CCF2-FA substrate
[18] = fluorescence assay with CCF2-FA substrate; read-out: VIM-1 IC50

Sequence of IMP-1 (P52699 whole entry, looked up): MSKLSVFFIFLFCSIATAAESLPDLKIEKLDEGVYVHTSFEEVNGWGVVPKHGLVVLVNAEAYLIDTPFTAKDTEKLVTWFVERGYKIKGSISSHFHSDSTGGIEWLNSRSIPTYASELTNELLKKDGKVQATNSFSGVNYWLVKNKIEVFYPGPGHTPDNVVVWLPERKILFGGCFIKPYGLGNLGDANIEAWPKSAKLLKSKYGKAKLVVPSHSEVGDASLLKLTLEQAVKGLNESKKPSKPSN
Sequence of NDM-1 (C7C422 whole entry, looked up, species assumed): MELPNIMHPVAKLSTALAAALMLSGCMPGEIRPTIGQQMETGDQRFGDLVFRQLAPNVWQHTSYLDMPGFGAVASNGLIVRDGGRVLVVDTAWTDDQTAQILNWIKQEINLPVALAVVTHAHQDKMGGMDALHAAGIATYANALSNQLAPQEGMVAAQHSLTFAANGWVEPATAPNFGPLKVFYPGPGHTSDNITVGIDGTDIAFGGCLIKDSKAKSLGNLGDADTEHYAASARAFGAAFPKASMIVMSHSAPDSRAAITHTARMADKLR

NC1CCC(Cc2ccc(-c3ccc(C4CCNCC4)cc3)c(-c3nn[nH]n3)c2S(N)(=O)=O)CC1 (stereo not drawn) [Example 463, 4-(((1r,4r)-4-aminocyclohexyl)methyl)-4′-(piperidin-4-yl)-2-(2H-tetrazol-5-yl)-[1,1′-biphenyl]-3-sulfonamide]
Serratia marcescens MITC95 [1, 4]: 0.1953 µM
Klebsiella pneumoniae MITC95 [2, 5]: 0.7813 µM
Escherichia coli MITC95 [3, 6]: 0.7813 µM
IC50 (IMP-1; [7]): 6.58 nM

NC1CCN(C2CCN(c3ccc(C(F)(F)F)c(S(N)(=O)=O)c3-c3nnn[nH]3)CC2)C1 (stereo not drawn) [Example 768, 3-[4-(3-aminopyrrolidin-1-yl)piperidin-1-yl]-2-(1H-tetrazol-5-yl)-6-(trifluoromethyl) benzenesulfonamide]
Serratia marcescens MITC95 [1, 8]: 6.25 µM
Klebsiella pneumoniae MITC95 [2, 9]: 3.125 µM
Escherichia coli MITC95 [3, 10]: 12.5 µM
IC50 (NDM-1; [11]): 24.6 nM
IC50 (IMP-1; [11]): 36.7 nM

CC(C(=O)O)N(C)Cc1ccc(-c2cccc(S(N)(=O)=O)c2-c2nnn[nH]2)cc1 (stereo not drawn) [Example 367, N-methyl-N-{[3′-sulfamoyl-2′-(1H-tetrazol-5-yl)biphenyl-4-yl]methyl}alanine]
Serratia marcescens MITC95 [1, 4]: 3.125 µM
Klebsiella pneumoniae MITC95 [2, 5]: 200 µM
Escherichia coli MITC95 [3, 6]: 3.125 µM
IC50 (NDM-1; [12]): 7.53 nM
IC50 (IMP-1; [7]): 60.3 nM

Cc1cc(-c2nnn[nH]2)c(S(N)(=O)=O)cc1C [Example 252, 4,5-Dimethyl-2-(2H-tetrazol-5-yl)benzenesulfonamide]
IC50 (NDM-1; [12]): 591 nM
IC50 (VIM-1; VIM-1 enzyme, CCF2-FA fluorescence assay; read-out: VIM-1 IC50): 156000 nM
IC50 (IMP-1; [7]): 112000 nM

NS(=O)(=O)c1c(C(F)(F)F)ccc(-c2ccc3nccn3c2)c1-c1nnn[nH]1 [Example 481, 3-imidazo[1,2-a]pyridin-6-yl-2-(1H-tetrazol-5-yl)-6-(trifluoromethyl)benzenesulfonamide]
Serratia marcescens MITC95 [1, 4]: 0.543 µM
Klebsiella pneumoniae MITC95 [2, 5]: 1.922 µM
Escherichia coli MITC95 [3, 6]: 0.125 µM
IC50 (NDM-1; [12]): 1.46 nM
IC50 (IMP-1; [7]): 7.11 nM

NS(=O)(=O)c1c(C(F)(F)F)ccc(-c2ccc(C3CN(CC4CCNCC4)C3)cc2)c1-c1nnn[nH]1 [Example 804, 4′-[1-(piperidin-4-ylmethyl)azetidin-3-yl]-2-(1H-tetrazol-5-yl)-4-(trifluoromethyl)biphenyl-3-sulfonamide]
Serratia marcescens MITC95 [1, 8]: 6.25 µM
Klebsiella pneumoniae MITC95 [2, 9]: 50 µM
Escherichia coli MITC95 [3, 10]: 3.125 µM
IC50 (NDM-1; [11]): 3.85 nM
IC50 (IMP-1; [11]): 5.78 nM

NS(=O)(=O)c1cccc(-c2ccc(NC3CCNC3)nc2)c1-c1nnn[nH]1 (stereo not drawn) [Example 628, 3-[6-(pyrrolidin-3-ylamino)-3-pyridyl]-2-(1H-tetrazol-5-yl)benzenesulfonamide]
Serratia marcescens MITC95 [1, 13]: 12.5 µM
Klebsiella pneumoniae MITC95 [2, 14]: 12.5 µM
Escherichia coli MITC95 [3, 15]: 0.9766 µM
IC50 (NDM-1; [16]): 45 nM
IC50 (IMP-1; [17]): 650 nM

CN1CCN(c2cc(-c3cccc(S(N)(=O)=O)c3-c3nnn[nH]3)ccn2)CC1 [Example 116, 3-(2-(4-methylpiperazin-1-yl)pyridin-4-yl)-2-(1H-tetrazol-5-yl)benzenesulfonamide]
Serratia marcescens expressing IMP-1 (CL5741) MITC95 [1]: 9.375 µM
Klebsiella pneumoniae expressing VIM-1 (IHMA 599644) MITC95 [2]: 200 µM
Escherichia coli expressing NDM-1 (CLB 30016) MITC95 [3]: 1.563 µM
IC50 (NDM-1; [11]): 5.43 nM
IC50 (IMP-1; [11]): 226 nM

NS(=O)(=O)c1c(C(F)(F)F)ccc(N2CC3(CCNCC3)C2)c1-c1nnn[nH]1 [Example 782]
IC50 (VIM-1; read-out: VIM-1 IC50; fluorescence assay with CCF2-FA substrate): 9.5 nM

NS(=O)(=O)c1cccc(-c2ccc(C(=O)NC3CCOC3)cc2)c1-c1nn[nH]n1 (stereo not drawn) [Example 2, 3′-sulfamoyl-N-(tetrahydrofuran-3-yl)-2′-(2H-tetrazol-5-yl)biphenyl-4-carboxamide]
IC50 (NDM-1; [11]): 52.3 nM
IC50 (VIM-1; [18]): 1910 nM
IC50 (IMP-1; [11]): 262 nM

NC1CCCC(N2CCC(c3ccc(-c4ccc(C(F)(F)F)c(S(N)(=O)=O)c4-c4nnn[nH]4)cc3)CC2)C1 (stereo not drawn) [Example 798, 4′-[1-(3-aminocyclohexyl)piperidin-4-yl]-2-(1H-tetrazol-5-yl)-4-(trifluoromethyl)biphenyl-3-sulfonamide]
Serratia marcescens MITC95 [1, 8]: 3.125 µM
Klebsiella pneumoniae MITC95 [2, 9]: 25 µM
Escherichia coli MITC95 [3, 10]: 1.563 µM
IC50 (NDM-1; [11]): 6.05 nM
IC50 (IMP-1; [11]): 2.35 nM

NCCNc1ccc(-c2cccc(S(N)(=O)=O)c2-c2nnn[nH]2)cn1 [Example 634, 3-[6-(2-aminoethylamino)-3-pyridyl]-2-(1H-tetrazol-5-yl)benzenesulfonamide]
Serratia marcescens MITC95 [1, 13]: 18.75 µM
Klebsiella pneumoniae MITC95 [2, 14]: 6.25 µM
Escherichia coli MITC95 [3, 15]: 0.5859 µM
IC50 (NDM-1; [16]): 14.1 nM
IC50 (IMP-1; [17]): 1280 nM

NS(=O)(=O)c1cccc(CCc2cccnc2)c1-c1nnn[nH]1 [Example 143, 3-(2-pyridin-3-ylethyl)-2-(1H-tetrazol-5-yl)benzenesulfonamide]
Serratia marcescens expressing IMP-1 (CL5741) MITC95 [1]: 4.688 µM
Klebsiella pneumoniae expressing VIM-1 (IHMA 599644) MITC95 [2]: 200 µM
Escherichia coli expressing NDM-1 (CLB 30016) MITC95 [3]: 0.7813 µM
IC50 (NDM-1; [11]): 20.7 nM
IC50 (IMP-1; [11]): 98.5 nM

NS(=O)(=O)c1c(C(F)(F)F)ccc(C2CCC2)c1-c1nnn[nH]1 [Example 492, 3-cyclobutyl-2-(1H-tetrazol-5-yl)-6-(trifluoromethyl)benzenesulfonamide]
Serratia marcescens MITC95 [1, 13]: 0.3906 µM
Klebsiella pneumoniae MITC95 [2, 14]: 12.5 µM
Escherichia coli MITC95 [3, 15]: 3.125 µM
IC50 (NDM-1; [16]): 17.3 nM
IC50 (IMP-1; [17]): 16 nM

NC1CCCC1N1CCC(c2ccc(-c3ccc(C(F)(F)F)c(S(N)(=O)=O)c3-c3nnn[nH]3)cc2)CC1 (stereo not drawn) [Example 791, 4′-[1-(2-aminocyclopentyl)piperidin-4-yl]-2-(1H-tetrazol-5-yl)-4-(trifluoromethyl)biphenyl-3-sulfonamide]
Serratia marcescens MITC95 [1, 8]: 1.563 µM
Klebsiella pneumoniae MITC95 [2, 9]: 50 µM
Escherichia coli MITC95 [3, 10]: 0.7813 µM
IC50 (NDM-1; [11]): 6.26 nM
IC50 (IMP-1; [11]): 1.2 nM

NS(=O)(=O)c1cccc(-c2ccc(CO)cc2)c1-c1nnn[nH]1 [Example 26, 4′-(hydroxymethyl)-2-(1H-tetrazol-5-yl)biphenyl-3-sulfonamide]
Klebsiella pneumoniae expressing VIM-1 (IHMA 599644) MITC95 [2]: 50 µM
IC50 (NDM-1; [11]): 2.43 nM
IC50 (VIM-1; [18]): 58.4 nM
IC50 (IMP-1; [11]): 46.2 nM

NS(=O)(=O)c1cccc(C2CCN(C(=O)C3(c4ccccc4)CC3)CC2)c1-c1nn[nH]n1 [Example 176, 3-(1-(1-phenylcyclopropanecarbonyl)piperidin-4-yl)-2-(2H-tetrazol-5-yl)benzenesulfonamide]
IC50 (NDM-1; [11]): 6.43 nM
IC50 (VIM-1; [18]): 148 nM
IC50 (IMP-1; [11]): 72.8 nM

NS(=O)(=O)c1nccc(N2CCC(CN3CCOCC3)CC2)c1-c1nnn[nH]1 [Example 224, 4-[4-(morpholin-4-ylmethyl)piperidin-1-yl]-3-(1H-tetrazol-5-yl)pyridine-2-sulfonamide]
Serratia marcescens expressing IMP-1 (CL5741) MITC95 [1]: 18.75 µM
Klebsiella pneumoniae expressing VIM-1 (IHMA 599644) MITC95 [2]: 200 µM
Escherichia coli expressing NDM-1 (CLB 30016) MITC95 [3]: 4.688 µM
IC50 (NDM-1; [11]): 247 nM

NS(=O)(=O)c1cccc(-c2ccc3ncnn3c2)c1-c1nnn[nH]1 [Example 111, 3-([1,2,4]triazolo[1,5-a]pyridin-6-yl)-2-(1H-tetrazol-5-yl)benzenesulfonamide]
Serratia marcescens expressing IMP-1 (CL5741) MITC95 [1]: 9.375 µM
Klebsiella pneumoniae expressing VIM-1 (IHMA 599644) MITC95 [2]: 18.75 µM
Escherichia coli expressing NDM-1 (CLB 30016) MITC95 [3]: 1.172 µM

NC1CCC(Cc2ccc(-c3ccc(C4CCNCC4)cc3)c(-c3nn[nH]n3)c2S(N)(=O)=O)CC1 (stereo not drawn) [Example 455, 4-(((1s,4s)-4-aminocyclohexyl)methyl)-4′-(piperidin-4-yl)-2-(2H-tetrazol-5-yl)-[1,1′-biphenyl]-3-sulfonamide]
Serratia marcescens MITC95 [1, 4]: 0.3906 µM
Klebsiella pneumoniae MITC95 [2, 5]: 1.563 µM
Escherichia coli MITC95 [3, 6]: 0.5859 µM
IC50 (IMP-1; [7]): 6.29 nM
